Key:
Type in all cases: cell-based
[1] = tested on: H1299 (NRAS Q61K mutant type); experiment: In vitro growth inhibition (GI50), H1299; conditions: Homo sapiens, NCI-H1299
Source text: (§1) Tumor cell line is an effective cell model for studying the inhibition of tumor cell growth or proliferation in vitro. In the present invention, a representative tumor cell line was selected to determine the cell growth inhibition activity of the present compound. All cell lines used were from ATCC, DSMZ, and the Cell Bank of the Chinese Academy of Sciences. Cell culture conditions and methods were in accordance with the requirements of each cell line. Cells were subcultured in vitro for no more than 3 passages each time, and as required, single-clone purification and identification of cell lines could be carried out.
(§2) The cell culture media used were RPMI1640 (Gibco), MEM (Gibco), McCOY'S5A (Gibco), and IMDM (Gibco). The complete medium was prepared by supplement with 5˜20% fetal calf serum (Gibco), 1% double-antibiotics (10000 units/mL penicillin and 10000 units/mL), 2 mM glutamine or 1 mM sodium pyruvate, respectively.
Human large cell lung cancer cell NCI-H460 (KRAS […] mutant type, ATCC), human non-small cell lung cancer cell line H1299 (NRAS Q61K mutant type, ATCC), human melanoma cell line A375 (BRAF V600E mutant type, Shanghai Cell Bank of Chinese Academy of Sciences), human colon cancer cell line HCT116 (KRAS G13D mutant type, Shanghai Cell Bank, Chinese Academy of Sciences) were cultured in a complete medium of 1×RPMI1640 (10% FBS), respectively. Human non-small cell lung cancer cells A549 (KRAS G12S mutant type, Shanghai Cell Bank, Chinese Academy of Sciences) were cultured in a complete medium of 1× Ham's supplemented with 10% FBS, 1% double antibody, and 2 mM glutamine.
(§3) Adherent cells were digested with 0.25% pancreatin-EDTA (Gibco). The suspension cells were collected by centrifugation. The supernatant was discarded and the cell pellet was resuspended and counted. Different cell concentrations (5˜10×10^4 cells/mL) were prepared according to the growth cycle of each cell line and then seeded on a 96-well plate (Corning), 100 μL/well. The cells were incubated overnight at 37° C., 5% CO2. The compounds were added to the cells on the second day with 2 wells in parallel. The final concentration of organic solvent shall not exceed 1%. The cells were continually incubated for 3 to 5 days, and then subjected to MTT assay.
(§4) The compound of the present invention and the control compound were dissolved in DMSO (Sigma) respectively, with the purity of more than 98%. The compound was stored in a concentration of 10 mM at −20° C. and diluted to 2- or 10-fold series prior to use.
(§5) Dojindo CCK8 reagent kit was used as MTT assay. THERMO […] FC meter was used as microplate reader.
(§6) For adherent cells, culture medium was removed and immediately replaced with the fresh prepared medium which contains 10% CCK8 reagent (100 μL/well). For the suspension cells, CCK8 was directly added to 10% of the final concentration. The cells were continually incubated for 1˜4 h. When a dark yellow color could be observed in the solvent control wells, the absorbance value at OD450 nm was measured and the cell growth rate was calculated according to the following formula: Cell Growth Rate (%)=100*(T−T0)/(C−T0) T=optical density of drug treatment cell well—optical density of blank control well; T0=optical density of cell well before drug treatment—optical density of blank control well; C=optical density of cell well of solvent control group—optical density of blank control well. The concentration value of 50% inhibition of cell growth (GI50) was calculated according to the drug concentration and cell growth rate curve. The experiment was independently repeated 1˜3 times, and subject to biological statistical analysis. 4. Experimental Results
Tumor cell growth inhibition test was performed by selecting representative compounds (compounds 4, 11, 12, 16, 27, 68, 71, 77, 79, 89 and 116 of the present invention). The initial concentration of the compound was 5,000 nM, then it was serially diluted by 2-fold or 10-fold to 0.01 nM. […]

[2] = tested on: ZR-75-30 (HER2/ErbB2 amp); experiment: In vitro growth inhibition (GI50), ZR-75-30; conditions: Homo sapiens
Source text: as §1, §2
(§7) Human gastric cancer cell line NCI-N87 (HER2/ErbB2 amp, ATCC), human breast cancer cell line HCC1954 (HER2/ErbB2 amp, ATCC) and ZR-75-30 (HER2/ErbB2 amp, ATCC), human adenocarcinoma cell line AU565 (HER2/ErbB2 amp, ATCC), human lung squamous cell carcinoma cell line NCI-H2170 (HER2/ErbB2 amp, ATCC), human bronchioalveolar adenocarcinoma cell line NCI-H1781 (HER2/ErbB2 Ins G776V,C mutant type, ATCC) were cultured with a 1×RPMI1640 complete medium (10% FBS), respectively. Human lung adenocarcinoma cell line Calu-3 (HER2/ErbB2 amp, ATCC) was cultured with 1×MEM, 10% FBS, 1% double antibody, 1% NEAA (Gibco), 2 mM glutamine and 1 mM sodium pyruvate. The human breast cancer cell line SK-BR-3 (HER2/ErbB2 amp, ATCC) was cultured with a McCOY'S5A complete medium (10% FBS).
as §3, §4, §5, §6
(§8) Tumor cell growth inhibition test was performed by selecting representative compounds (compounds 4, 11, 12, 16, 27, 68, 71, 77, 79, 89 and 116 of the present invention). […]

[3] = tested on: NCI-H2170 (HER2/ErbB2 amp); experiment: In vitro growth inhibition (GI50), NCI-H2170; conditions: Homo sapiens
Source text: as §1, §2, §7, §3, §4, §5, §6, §8

SK-BR-3 (HER2/ErbB2 amp) = experiment: In vitro growth inhibition (GI50), SK-BR-3; conditions: Homo sapiens, SK-BR3, HER2/ErbB2 amp+
Source text: as §1, §2, §7, §3, §4, §5, §6, §8

Measured: GI50

CC(C)(C)c1cc(NC(=O)Nc2ccc(-n3cnc4cc(OCCN5CCOCC5)ccc43)cc2)[nH]n1 [Compound 89, 1-(5-tert-butyl-2H-pyrazol-3-yl)-3-{4-[5-(2-morpholin-4-yl-ethoxyl)-benzimidazol-1-yl]-phenyl}-urea]
> 2500 nM: all assays above

CC(C)(C)c1cc(NC(=O)Nc2ccc(-n3cnc4cc(O)ccc43)cc2)no1 [Compound 4, 1-(5-tert-butyl-isoxazol-3-yl)-3-[4-(5-hydroxy-benzimidazol-1-yl)-phenyl]-urea]
> 2500 nM: all assays above

CC(C)(C)c1cc(NC(=O)Nc2ccc(-n3cnc4cc(OCCO)ccc43)cc2)no1 [Compound 11, 1-(5-tert-butyl-isoxazol-3-yl)-3-{4-[5-(2-hydroxy-ethoxyl)-benzimidazol-1-yl]-phenyl]-urea]
> 2500 nM: all assays above

COCCOc1ccc2c(c1)ncn2-c1ccc(NC(=O)Nc2cc(C(C)(C)C)n[nH]2)cc1 [Compound 77, 1-(5-tert-butyl-2H-pyrazol-3-yl)-3-{4-[5-(2-methoxyl-ethoxyl)-benzimidazol-1-yl]-phenyl}-urea]
> 2500 nM: all assays above

CC(C)(C)c1cc(NC(=O)Nc2ccc(-n3cnc4ccccc43)cc2)[nH]n1 [Compound 68, 1-(4-benzimidazol-1-yl-phenyl)-3-(5-tert-butyl-2H-pyrazol-3-yl)-urea]
> 2500 nM: all assays above

CC(C)(C)c1cc(N)n(C(=O)Nc2ccc(-n3cnc4ccccc43)cc2)n1 [Compound 116, 5-amino-3-tert-butyl-pyrazol-1-carboxylic acid (4-benzimidazol-1-yl-phenyl)-amide]
> 2500 nM: all assays above

CC(C)(C)c1cc(NC(=O)Nc2ccc(-n3cnc4cc(OCCN5CCOCC5)ccc43)cc2)no1 [Compound 16, 1-(5-tert-butyl-isoxazol-3-yl)-3-{4-[5-(2-morpholin-4-yl-ethoxyl)-benzimidazol-1-yl]-phenyl}-urea]
> 2500 nM: all assays above

COc1ccc2c(c1)ncn2-c1ccc(NC(=O)Nc2cc(C(C)(C)C)n[nH]2)cc1 [Compound 71, 1-(5-tert-butyl-2H-pyrazol-3-yl)-3-[4-(5-methoxyl-benzimidazol-1-yl)-phenyl]-urea]
> 2500 nM: all assays above

CC(C)(C)c1cc(NC(=O)Nc2ccc(-n3cnc4cc(OCCO)ccc43)cc2)[nH]n1 [Compound 79, 1-(5-tert-butyl-2H-pyrazol-3-yl)-3-{4-[5-(2-hydroxy-ethoxyl)-benzimidazol-1-yl]-phenyl]urea]
> 2500 nM: all assays above

CC(C)(C)c1cc(NC(=O)Nc2ccc(-n3cnc4ccc(OCCN5CCOCC5)cc43)cc2)no1 [Compound 27, 1-(5-tert-butyl-isoxazol-3-yl)-3-{4-[6-(2morpholin-4-yl-ethoxyl)-benzimidazol-1-yl]-phenyl}-urea]
> 2500 nM: all assays above

Reference: patent publication US10647680B2, “Urea compound, preparation method therefor and medical use thereof” (Ancureall Pharmaceutical (Shanghai) Co., Ltd., priority 2016, dated 2020)
